Here are results for 13 compounds from PubChem BioAssay (NCI).

Values joined by “and” are separate entries in the source; they are usually repeats but may differ in a detail not shown here. Identical values can stand only once.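 Five compound concentrations were applied to cells in 96-well plates for 48 hours; endpoints were derived by simple linear interpolation of the resulting dose-response curve. Here, GI50 denotes the concentration required for 50% inhibition of growth. TGI denotes the concentration required for complete inhibition of growth.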

For one experiment, the system named is A549 NSCLC. The experiment in a line: inhibition of tumour cell growth, NCI panel, 48 h.
Compound `CCOC(=O)[C@]1(OC(C)=O)C[C@H](OC(C)=O)[C@@H](C(F)COP(=O)(OCc2ccccc2)OCc2ccccc2)O1` (stereo not given in full) gave a TGI of over 100 µM.
Compound `O=C(O)c1ccccc1[Se][Se]c1ccccc1C(=O)O` registered a TGI of over 100 µM.
Take `CC1(C)CCc2c(c3c(c4c(=O)c(O)c(-c5ccc(O)cc5)oc24)OC(C)(C)CC3)O1`: the GI50 is over 100 µM and the TGI is over 100 µM.
In turn, `CC(C)=CC(=O)C1c2cccc(O)c2C(=O)c2c(O)cc(C)cc21` (stereo not given) returned a TGI of 4.31 µM.
As to `O=C(Nc1ccccc1)NS(=O)(=O)c1ccc(-n2nc3c(c2-c2cccs2)Cc2ccccc2-3)cc1`, the GI50 was 20.8 µM and the TGI was over 100 µM.
As for `CCCCCN(CCCCC)CC(O)c1cc(C)c2ccc3cc(C(C)C)ccc3c2c1` (stereo not given), the GI50 is 2.61 µM and the TGI stood at 5.58 µM.
For `COC(=O)CC1CCN(C#N)CC1CC[N+](=O)[O-]` (stereo not given), the TGI was over 100 µM.
With `CC(C)CCC[C@@H](C)[C@H]1CC[C@H]2[C@@H]3CC=C4C[C@@H](C(C(=O)O)C(=O)O)CC[C@]4(C)[C@H]3CC[C@]12C`, the GI50 was 0.145 µM and the TGI worked out at 0.547 µM.
With `COc1ccc(-c2nc3sccn3c2/C(N)=N/C(=N)N)cc1OC`, the GI50 is over 100 µM and the TGI is over 100 µM.
`CC1=C(C(=O)Nc2ccc(Cl)c(Cl)c2)C(c2cccc(Oc3ccccc3)c2)NC(=S)N1` (stereo not given): the GI50 was 9.51 µM and the TGI came to 23.7 µM.
Turning to `Nc1ccccc1SC(C[N+](=O)[O-])c1ccc2c(c1)OCO2` (stereo not given), the TGI is 8.68 µM.
Regarding `Cc1nc2ccccc2c(=O)n1-c1ccccc1I`, the TGI is over 100 µM.

The subject of another experiment is CAKI-1 renal. The experiment in a line: inhibition of tumour cell growth, NCI panel, 48 h.
`CCOC(=O)[C@]1(OC(C)=O)C[C@H](OC(C)=O)[C@@H](C(F)COP(=O)(OCc2ccccc2)OCc2ccccc2)O1` (stereo not given in full): the TGI was over 100 µM.
In turn, `O=C(O)c1ccccc1[Se][Se]c1ccccc1C(=O)O` gave a TGI of over 100 µM.
Take `CC[C@@]1(O)C[C@H](OC2CC(N(C)C)C(O)C(C)O2)c2c(O)c3c(c(O)c2[C@H]1OC1CC(N(C)C)C(O)C(C)O1)C(=O)c1cccc(O)c1C3=O` (stereo not given in full): the TGI came to 0.0545 µM.
For the compound `CC1(C)CCc2c(c3c(c4c(=O)c(O)c(-c5ccc(O)cc5)oc24)OC(C)(C)CC3)O1`, the GI50 is over 100 µM and the TGI was over 100 µM.
In the case of `CC(C)=CC(=O)C1c2cccc(O)c2C(=O)c2c(O)cc(C)cc21` (stereo not given), the TGI turned out to be 21.5 µM.
Consider `O=C(Nc1ccccc1)NS(=O)(=O)c1ccc(-n2nc3c(c2-c2cccs2)Cc2ccccc2-3)cc1`, for which the GI50 is 11.1 µM and the TGI was 44.1 µM.
Regarding `CCCCCN(CCCCC)CC(O)c1cc(C)c2ccc3cc(C(C)C)ccc3c2c1` (stereo not given), the GI50 was 1.4 µM and the TGI was determined as 2.81 µM.
On to `COC(=O)CC1CCN(C#N)CC1CC[N+](=O)[O-]` (stereo not given), for which the TGI was over 100 µM.
In the case of `CC(C)CCC[C@@H](C)[C@H]1CC[C@H]2[C@@H]3CC=C4C[C@@H](C(C(=O)O)C(=O)O)CC[C@]4(C)[C@H]3CC[C@]12C`, the GI50 was 0.076 µM and the TGI was 0.199 µM.
Turning to `COc1ccc(-c2nc3sccn3c2/C(N)=N/C(=N)N)cc1OC`, the GI50 is 87.7 µM and the TGI is over 100 µM.
Take `CC1=C(C(=O)Nc2ccc(Cl)c(Cl)c2)C(c2cccc(Oc3ccccc3)c2)NC(=S)N1` (stereo not given): the GI50 is 8.48 µM and the TGI amounted to 15.4 µM.
The compound `Nc1ccccc1SC(C[N+](=O)[O-])c1ccc2c(c1)OCO2` (stereo not given) displayed a TGI of 26.6 µM.
As to `Cc1nc2ccccc2c(=O)n1-c1ccccc1I`, the TGI is over 100 µM.

The subject of a further experiment is HOP-62 NSCLC. The experiment in a line: inhibition of tumour cell growth, NCI panel, 48 h.
`CCOC(=O)[C@]1(OC(C)=O)C[C@H](OC(C)=O)[C@@H](C(F)COP(=O)(OCc2ccccc2)OCc2ccccc2)O1` (stereo not given in full) yielded a TGI of over 100 µM.
On to `O=C(O)c1ccccc1[Se][Se]c1ccccc1C(=O)O`, for which the TGI is 73.5 µM.
As for `CC[C@@]1(O)C[C@H](OC2CC(N(C)C)C(O)C(C)O2)c2c(O)c3c(c(O)c2[C@H]1OC1CC(N(C)C)C(O)C(C)O1)C(=O)c1cccc(O)c1C3=O` (stereo not given in full), the GI50 was under 0.01 µM and the TGI amounted to 0.192 µM.
In the same order, the values of `CC1(C)CCc2c(c3c(c4c(=O)c(O)c(-c5ccc(O)cc5)oc24)OC(C)(C)CC3)O1` are 24.8 µM and 54.7 µM.
As for `CC(C)=CC(=O)C1c2cccc(O)c2C(=O)c2c(O)cc(C)cc21` (stereo not given), the TGI worked out at 7.87 µM.
Turning to `O=C(Nc1ccccc1)NS(=O)(=O)c1ccc(-n2nc3c(c2-c2cccs2)Cc2ccccc2-3)cc1`, the GI50 was 18.1 µM and the TGI was 47 µM.
Take `CCCCCN(CCCCC)CC(O)c1cc(C)c2ccc3cc(C(C)C)ccc3c2c1` (stereo not given): the GI50 is 2.12 µM and the TGI was found to be 5.7 µM.
As for `COC(=O)CC1CCN(C#N)CC1CC[N+](=O)[O-]` (stereo not given), the TGI is over 100 µM.
Take `CC(C)CCC[C@@H](C)[C@H]1CC[C@H]2[C@@H]3CC=C4C[C@@H](C(C(=O)O)C(=O)O)CC[C@]4(C)[C@H]3CC[C@]12C`: the GI50 is 0.176 µM and the TGI stood at 0.747 µM.
The like results for `COc1ccc(-c2nc3sccn3c2/C(N)=N/C(=N)N)cc1OC` were, in that order, 24.6 µM and 58.3 µM.
In the same order, the values of `CC1=C(C(=O)Nc2ccc(Cl)c(Cl)c2)C(c2cccc(Oc3ccccc3)c2)NC(=S)N1` (stereo not given) are 14.2 µM and 24.2 µM.
`Nc1ccccc1SC(C[N+](=O)[O-])c1ccc2c(c1)OCO2` (stereo not given): the TGI was determined as 4.38 µM.
Same read-out and setting: to `Cc1nc2ccccc2c(=O)n1-c1ccccc1I` belongs over 100 µM.

The next experiment relates to KM12 colon. The experiment in a line: inhibition of tumour cell growth, NCI panel, 48 h.
`CCOC(=O)[C@]1(OC(C)=O)C[C@H](OC(C)=O)[C@@H](C(F)COP(=O)(OCc2ccccc2)OCc2ccccc2)O1` (stereo not given in full): the GI50 was 19.3 µM and > 100 µM; the TGI was 41.2 µM and > 100 µM.
As to `O=C(O)c1ccccc1[Se][Se]c1ccccc1C(=O)O`, the TGI is 89.1 µM.
In the case of `CC[C@@]1(O)C[C@H](OC2CC(N(C)C)C(O)C(C)O2)c2c(O)c3c(c(O)c2[C@H]1OC1CC(N(C)C)C(O)C(C)O1)C(=O)c1cccc(O)c1C3=O` (stereo not given in full), the GI50 was under 0.01 µM.
In the case of `CC1(C)CCc2c(c3c(c4c(=O)c(O)c(-c5ccc(O)cc5)oc24)OC(C)(C)CC3)O1`, the GI50 is over 100 µM and the TGI is over 100 µM.
Regarding `CC(C)=CC(=O)C1c2cccc(O)c2C(=O)c2c(O)cc(C)cc21` (stereo not given), the TGI stood at 3.17 µM.
Consider `O=C(Nc1ccccc1)NS(=O)(=O)c1ccc(-n2nc3c(c2-c2cccs2)Cc2ccccc2-3)cc1`, for which the GI50 is 8.08 µM and the TGI was over 100 µM.
Take `CCCCCN(CCCCC)CC(O)c1cc(C)c2ccc3cc(C(C)C)ccc3c2c1` (stereo not given): the GI50 is 1.8 µM and the TGI was found to be 3.36 µM.
The compound `COC(=O)CC1CCN(C#N)CC1CC[N+](=O)[O-]` (stereo not given) had a TGI of over 100 µM.
With `CC(C)CCC[C@@H](C)[C@H]1CC[C@H]2[C@@H]3CC=C4C[C@@H](C(C(=O)O)C(=O)O)CC[C@]4(C)[C@H]3CC[C@]12C`, the GI50 is 0.117 µM and the TGI turned out to be 0.292 µM.
For the compound `COc1ccc(-c2nc3sccn3c2/C(N)=N/C(=N)N)cc1OC`, the GI50 is 24.7 µM and the TGI worked out at 81.8 µM.
On to `CC1=C(C(=O)Nc2ccc(Cl)c(Cl)c2)C(c2cccc(Oc3ccccc3)c2)NC(=S)N1` (stereo not given), for which the GI50 was 5.71 µM and the TGI was found to be 12.6 µM.
As to `Nc1ccccc1SC(C[N+](=O)[O-])c1ccc2c(c1)OCO2` (stereo not given), the TGI worked out at 6.31 µM.

The next experiment relates to NCI-H460 lung. Nature of the experiment: inhibition of tumour cell growth, NCI panel, 48 h.
On to `CCOC(=O)[C@]1(OC(C)=O)C[C@H](OC(C)=O)[C@@H](C(F)COP(=O)(OCc2ccccc2)OCc2ccccc2)O1` (stereo not given in full), for which the GI50 is 18.4 µM and > 100 µM; the TGI is 39.9 µM and > 100 µM.
Regarding `O=C(O)c1ccccc1[Se][Se]c1ccccc1C(=O)O`, the TGI was over 100 µM.
Turning to `CC[C@@]1(O)C[C@H](OC2CC(N(C)C)C(O)C(C)O2)c2c(O)c3c(c(O)c2[C@H]1OC1CC(N(C)C)C(O)C(C)O1)C(=O)c1cccc(O)c1C3=O` (stereo not given in full), the GI50 was under 0.01 µM; the TGI is 0.304 µM and 0.662 µM.
In the case of `CC1(C)CCc2c(c3c(c4c(=O)c(O)c(-c5ccc(O)cc5)oc24)OC(C)(C)CC3)O1`, the GI50 was 48.7 µM and the TGI is over 100 µM.
For `CC(C)=CC(=O)C1c2cccc(O)c2C(=O)c2c(O)cc(C)cc21` (stereo not given), the TGI was found to be 10.1 µM.
With `O=C(Nc1ccccc1)NS(=O)(=O)c1ccc(-n2nc3c(c2-c2cccs2)Cc2ccccc2-3)cc1`, the GI50 was 18.9 µM and the TGI is over 100 µM.
For `CCCCCN(CCCCC)CC(O)c1cc(C)c2ccc3cc(C(C)C)ccc3c2c1` (stereo not given), the GI50 was 1.97 µM and the TGI was found to be 4.05 µM.
The compound `COC(=O)CC1CCN(C#N)CC1CC[N+](=O)[O-]` (stereo not given) showed a TGI of over 100 µM.
Regarding `CC(C)CCC[C@@H](C)[C@H]1CC[C@H]2[C@@H]3CC=C4C[C@@H](C(C(=O)O)C(=O)O)CC[C@]4(C)[C@H]3CC[C@]12C`, the GI50 is 0.16 µM and the TGI is 0.497 µM.
Turning to `COc1ccc(-c2nc3sccn3c2/C(N)=N/C(=N)N)cc1OC`, the GI50 is 46.7 µM and the TGI was over 100 µM.
`CC1=C(C(=O)Nc2ccc(Cl)c(Cl)c2)C(c2cccc(Oc3ccccc3)c2)NC(=S)N1` (stereo not given): the GI50 is 7.57 µM and the TGI was 14.4 µM.
`Nc1ccccc1SC(C[N+](=O)[O-])c1ccc2c(c1)OCO2` (stereo not given) showed a TGI of 4.75 µM.
`Cc1nc2ccccc2c(=O)n1-c1ccccc1I`: the TGI was over 100 µM.

Another experiment deals with NCI-H522 lung. Nature of the experiment: inhibition of tumour cell growth, NCI panel, 48 h.
Take `CCOC(=O)[C@]1(OC(C)=O)C[C@H](OC(C)=O)[C@@H](C(F)COP(=O)(OCc2ccccc2)OCc2ccccc2)O1` (stereo not given in full): the GI50 is 28.3 µM and > 100 µM; the TGI is 93.7 µM and > 100 µM.
`O=C(O)c1ccccc1[Se][Se]c1ccccc1C(=O)O` showed a TGI of over 100 µM.
